Experiments:
Assay type in all cases: in vivo
[1] = system: wild-type mice (both male and female); assay: Elevated plus maze (anxiety-like behavior)
Method: These same mice were tested on a 5-minute elevated plus maze protocol at 1-3 days after their final drinking session. 30-60 minutes following an i.p. injection of either 0, 1, 2, or 4 mg/kg UNC0642, mice were allowed to freely explore the open and closed arms of the elevated plus maze. Less anxious mice typically explore the open arms more quickly and spend more time exploring the open arms. […] No statistically significant effects were observed on the time spent in the open arms, as UNC0642 had no effect on open arms time in the elevated plus maze (see FIG. 7D; One-Way ANOVA, F3,42=0.7372, p=0.5359, 1 outlier removed from the 1 mg/kg group with a Grubbs test) or on the number of entries into the open arms, meaning that UNC0642 had no effect on the number of open arm entries in the elevated plus maze (FIG. 7E; One-Way ANOVA, F3,42=1.396, p=0.2573, 1 outlier removed from the 0 mg/kg group with a Grubbs test). […] Thus, in some embodiments, it can be particularly useful for treating individuals with co-morbid psychiatric diseases and/or disorders and AUD/SUD.

[2] = system: C57BL/6J mice; assay: Two-bottle choice ethanol drinking (non-stressed) under systemic UNC0642
Method: Animal Care. Adult male C57BL/6J mice (Jackson Laboratory, Bar Harbor, Me.) were singly housed in a climate-controlled environment (21° C.) on a 12h light-dark cycle. Animals were habituated to the housing environment for at least 7 days prior to use in experiments, and had food and water ad libitum. All drinking and behavioral experiments were performed during the dark cycle as described below, and were approved by the MUSC Institutional Animal Care and Use Committee (IACUC) in facilities accredited by the American Association for the Accreditation of Laboratory Animal Care (AAALAC). All procedures were conducted in accordance with the guidelines established by the National Institutes of Health and the National Research Council.
(§1) Systemic G9A inhibitor administration and stress-potentiated drinking. […] Mice were then divided into 2 even groups and given chronic injections of either vehicle or 4 mg/kg UNC0642 for 2 weeks similar to a previous in vivo study in mice (Wang et al., 2018). Next, following 3 days of withdrawal, control mice were injected with 5 mg/kg U50,488 only and chronic treated mice were given both U50,488 and UNC0642 in the same injection 30 minutes before the session. This test was repeated again the following day and then only vehicle injections were given to all mice for the next 3 days before two-bottle choice testing. Finally, after another 3 day withdrawal, an acute injection of UNC0642+U50,488 was given to the naïve control group while U50,488 alone was administered to the chronic UNC0642 group 30 minutes before drinking.
Systemic EHMT2/G9A Inhibition Suppresses Stress-induced Ethanol Drinking Since reducing EHMT2/G9A levels in the NAc blocked stress-regulated ethanol drinking in mice, we tested whether systemic delivery of a specific EHMT2/G9A methyltransferase inhibitor, UNC0642 (Liu et al, 2013), could block stress-potentiated ethanol drinking. Wild-type mice were allowed to drink ethanol for 2 weeks prior to repeated, daily injections of UNC0642 (4 mg/kg; i.p.) given 30 minutes prior to the 2-bottle choice sessions (FIG. 5A). […]

[3] = system: wild-type mice; assay: Dependence (CIE)-induced and forced swim stress+dependence escalated ethanol drinking under systemic UNC0642; details: chronic 4 mg/kg UNC0642 for 15 days
Method: Systemic G9A inhibitor administration and dependence-potentiated and stress+dependence-potentiated drinking. […] Mice were then divided into 4 even groups. Mice were exposed to Air/No stress, Air/FSS, CIE/No Stress, or CIE/stress in a 2×2 design to assess the effects of UNC0642 on dependence drinking alone and dependence+stress. Chronic injections of either vehicle or 4 mg/kg UNC0642 were started during the “test 4” phase in FIG. 6A and continued for 15 days. Ethanol consumed was recorded daily.
Since systemic delivery of UNC0642 blocked stress-regulated ethanol drinking in mice, we tested whether systemic delivery of UNC0642 could block dependence-induced escalation of ethanol drinking also. […] Mice were then divided into 4 evenly matched groups. Mice were exposed to Air/No stress, Air/FSS, CIE/No Stress, or CIE/stress to assess the effects of UNC0642 on ethanol drinking influenced by alcohol dependence alone or stress+dependence. Chronic injections of either vehicle or 4 mg/kg UNC0642 were started during the “test 4” phase illustrated in FIG. 6A and continued for 15 days.

[4] = system: C57BL/6J mice; assay: U50,488 (kappa agonist) stress-potentiated two-bottle choice ethanol drinking under systemic UNC0642
Method: as §1
Systemic EHMT2/G9A Inhibition Suppresses Stress-induced Ethanol Drinking Since reducing EHMT2/G9A levels in the NAc blocked stress-regulated ethanol drinking in mice, we tested whether systemic delivery of a specific EHMT2/G9A methyltransferase inhibitor, UNC0642 (Liu et al, 2013), could block stress-potentiated ethanol drinking. Wild-type mice were allowed to drink ethanol for 2 weeks prior to repeated, daily injections of UNC0642 (4 mg/kg; i.p.) given 30 minutes prior to the 2-bottle choice sessions (FIG. 5A). […] Mice were then allowed to continue ethanol drinking for one additional week before the UNC0642-naïve mice (former vehicle control group) were injected with either vehicle or UNC0642 (4 mg/kg; i.p.) and tested for U50,488-potentiated ethanol drinking.
Since UNC0642 (4 mg/kg, i.p.) blocked stress-regulated ethanol drinking in mice as shown above, it was next tested whether this effect was dose-dependent and if it worked similarly in both sexes. There are reported sex/gender differences in the risk of developing several neuropsychiatric conditions, including AUD, SUD, and mood disorders, and while there was no a priori expectation of a sex-difference in UNC0642 efficacy in reducing stress-potentiated alcohol drinking, we wished to confirm that the treatment would be effective in both males and females. Similar to the studies described hereinabove (FIG. 5A), wild-type mice (both male and female) were allowed to drink ethanol for 2 weeks prior to repeated, daily injections of UNC0642 (4 mg/kg; 2 mg/kg, 1 mg/kg, or 0 mg/kg (vehicle), i.p.) given 30 minutes prior to the 2-bottle choice sessions. […]

COc1cc2c(NC3CCN(C(C)C)CC3)nc(N3CCC(F)(F)CC3)nc2cc1OCCCN1CCCC1 [UNC0642, 2-(4,4-Difluoropiperidin-1-yl)-6-methoxy-N-[1-(propan-2-yl)piperidin-4-yl]-7-[3-(pyrrolidin-1-yl)propoxy]quinazolin-4-amine]
time spent in the open arms of the elevated plus maze ([1]; 1, 2, 4 mg/kg i.p., FIG. 7D): no effect | number of open arm entries in the elevated plus maze ([1]; 1, 2, 4 mg/kg i.p., FIG. 7E): no effect | latency to explore the open arms of the elevated plus maze ([1]; all 3 doses (1, 2, 4 mg/kg i.p.), 30-60 min after injection, 5-minute test, both sexes, FIG. 7C): reduced the latency | ethanol drinking during the first week of daily UNC0642 injections (week 3) ([2]; 4 mg/kg i.p. daily, 30 min before 2-bottle choice session, vs vehicle, FIG. 5B): significant reduction | ethanol intake in the second week of daily drug treatments (week 4) ([2]; 4 mg/kg i.p. daily, vs vehicle control, FIG. 5B): no difference | baseline two-bottle choice alcohol drinking during daily UNC0642 injections ([2]; 1, 2 or 4 mg/kg i.p. daily, male and female mice, weeks 3-5, FIG. 7A): no effect | dependence-induced ethanol drinking during test 5 week ([3]; CIE vs Air, no stress, FIG. 6B left panel): significant reduction | stress+dependence ethanol drinking, test 5 ([3]; forced swim stress plus CIE, FIG. 6B right panel): also suppressed | U50,488-potentiated ethanol drinking, chronic UNC0642 2 mg/kg ([4]; 2 mg/kg i.p. daily, male and female mice, both sexes similarly, FIG. 7B): suppressed | U50,488-potentiated ethanol drinking, chronic UNC0642 4 mg/kg ([4]; 4 mg/kg i.p. daily, male and female mice, both sexes similarly, FIG. 7B): suppressed | U50,488-potentiated ethanol drinking, chronic UNC0642 treatment ([4]; chronic 4 mg/kg i.p. for 2 weeks, U50,488 5 mg/kg i.p. 30 min before session, FIG. 5C): suppressed | U50,488-potentiated ethanol drinking, single (acute) injection of UNC0642 ([4]; single 4 mg/kg i.p. with U50,488 5 mg/kg in UNC0642-naive mice, FIG. 5D): failed to influence stress-potentiated drinking

Reference: patent US20230218631A1 (priority 2020, published 2023)
